From publication PMC4514675, “Novel Apo E-Derived ABCA1 Agonist Peptide (CS-6253) Promotes Reverse Cholesterol Transport and Induces Formation of preβ-1 HDL In Vitro” (PLoS ONE, 2015)

Assays:
[1] = tested on: BHK cells expressing ABCA1; assay: Nascent HDL particle formation, 2D-PAGGE; format: cell-based, hamster; settings: 0.96 μM
Description: Apo A-I and CS-6253-containing particles were separated according to charge (agarose, horizontal axis) and size (polyacrylamide gradient, 3% to 20% gel, vertical axis) as previously described. Apo A-I-containing particles were detected by incubating the membranes with immunopurified polyclonal anti-apo A-I antibody (Biodesign). The nHDL-CS-6253 containing particles were detected with immunopurified polyclonal anti-CS-6253 antibody (Biosynthesis Inc., Lewisville, TX). The anti-CS-6253 is a purified rabbit IgG polyclonal antibody specifically produced by Biosynthesis Inc. It is. Cross reactivity of this antibody was verified by Nondenaturing gradient gel electrophoresis (ND-PAGGE) 5% to 35% [24]. The anti-CS-6253 antibody recognizes only CS-6253 peptide in plasma; neither apo A-I nor apo E were detected by this antibody after separation by gradient gel electrophoresis respectively (Fig 1A, 1B and 1C). High molecular weight protein mixture (GE Healthcare, UK) was run as a standard on each gel.
Next, we investigated the nature of CS-6253-containing particles released in the medium from stimulated ABCA1 cells. Cells were first incubated in 100 mm diameter dishes with either (0.96 μM) apo A-I or CS-6253 in 8 ml of DMEM for 45 min and 6 h at 37°C. These two time points were selected based on our previous work on HDL biogenesis. Lipid free apo A-I or CS-6253 incubated in cell free system media under same conditions were used as control for 2D-PAGGE analysis. Apo A-I or CS-6253-containing particles were separated and analyzed by 2D-PAGGE. […] Both the charge and size of these nascent particles were stable over a 6h incubation period.
Fig 5 Time course ability of CS-6253 to generate nHDL-mimetic like particles. (A and B): nHDL-CS-6253 and nHDL-apo A-I released to the medium at specific time points (45 min and 6 h) from BHK cells expressing ABCA1 were analyzed by 2D-PAGGE. […] Molecular markers are indicated.

BHK-mock cells = assay: Cholesterol efflux from BHK-mock cells to acceptor in human plasma; format: cell-based, hamster
Description: We investigated cholesterol efflux from BHK cells after adding lipid free CS-6253 to media cell culture or to human EDTA-plasma which had been stored at -80°C. BHK overexpressing human ABCA1 were labeled with 2 μCi/ml ^3H-free cholesterol (Perkin Elmer, Norwalk, Connecticut) for 24 h. Afterward, BHK-ABCA1 were stimulated with 10 nmol/l mifepristone for 18–20 h (13). Cells were incubated with various doses of acceptor in media for 4 h at 37°C. Alternatively, plasma samples were first pre-incubated for 5 min at 37°C in plasma at mole ratios (10:1 or 1:1 relative to plasma apo A-I). To obtain the HDL fraction, apoB lipoproteins were precipitated from plasma by polyethylene glycol (PEG). Also, increased doses of lipid free CS-6253 and nHDL-CS-6253 were tested for cholesterol efflux after incubation with human plasma for optimum 1h at 37°C. ^3[H]-cholesterol loaded BHK cells expressing ABCA1 were incubated with 2.8% apoB depleted plasma samples [19] for 4 h for the efflux assays. Lipid free apo A-I and nHDL-apo A-I were used as control, nHDL-CS-6253 and nHDL-apo A-I were generated after incubation with BHK cells expressing ABCA1. […]
Fig 7 Dose dependent effects of pre-incubation of plasma with lipid free CS-6253, or nHDL-CS-6253 on ABCA1 cholesterol efflux. […] Isolated HDL fractions by PEG were separated by 2D-PAGGE and HDL subpopulations were detected by apo A-I Western blot. […]

For apolipoprotein A-I [apo A-I], the “electrophoretic mobility of released particles” value ([1]; 45 min or 6 h, BHK-ABCA1) was “α-electrophoretic mobility”, the “electrophoretic mobility, incubated without cells” value ([1]; cell free media) was “pre-β electrophoretic mobility” and the “molecular diameter, incubated without cells” value ([1]; lipid free, cell free media, pre-β mobility) was 7.1 nm. For the same substance, the “maximum efflux capacity, BHK-mock” value (BHK-mock cells; acceptor in human plasma) was “similar” and the “Vmax, cholesterol efflux, BHK-mock” value (BHK-mock cells; acceptor in human plasma 1 h, 37°C) was 0.30±0.15 % efflux/6h.
